{
  "source": "patent US8618163B2",
  "about": "“Derivatives of cycloalkyl- and cycloalkenyl-1,2-dicarboxylic acid compounds having formyl peptide receptor like-1 (FPRL-1) agonist or antagonist activity” (Allergan, Inc., priority 2010, dated 2013)",
  "key": {"FPRL1": {"target": "T1, FPRL1 (Homo sapiens, UniProt P25090)", "T1 construct": "expressed in transfected cells; host or cells: CHO-Gal6 (CHO cells with G alpha 16)", "T1 sequence (P25090 1-351)": "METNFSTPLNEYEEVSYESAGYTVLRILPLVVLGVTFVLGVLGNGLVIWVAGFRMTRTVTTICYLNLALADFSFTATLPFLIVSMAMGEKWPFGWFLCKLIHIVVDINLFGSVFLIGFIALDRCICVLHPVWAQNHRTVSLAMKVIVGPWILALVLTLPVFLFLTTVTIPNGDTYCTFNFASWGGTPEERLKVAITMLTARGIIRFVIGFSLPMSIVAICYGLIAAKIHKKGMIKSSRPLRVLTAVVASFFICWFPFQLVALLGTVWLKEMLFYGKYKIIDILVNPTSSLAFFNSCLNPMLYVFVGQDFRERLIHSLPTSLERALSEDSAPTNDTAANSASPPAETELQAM", "assay": "compound-induced calcium activity on FLIPR Tetra in CHO-Gal6 cells stably expressing FPRL1", "type": "cell-based", "settings": "for FPRL1 (rel. eff.): relative efficacy", "outline": "(§1)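 FPRL1 tested in CHO-Gal6 cells and FPR1 in HEK-Gqi5 cells, both stably expressing receptor and plated the day before. Compound-induced calcium response measured on FLIPR Tetra at 0.61 to 10,000 nM. EC50 (nM) and efficacy reported.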"}, "FPR1": {"target": "T2, FPR1 (Homo sapiens, UniProt P21462)", "T2 construct": "expressed in transfected cells; host or cells: HEK-Gqi5 (HEK cells with chimeric G protein Gqi5)", "T2 sequence (P21462 1-350)": "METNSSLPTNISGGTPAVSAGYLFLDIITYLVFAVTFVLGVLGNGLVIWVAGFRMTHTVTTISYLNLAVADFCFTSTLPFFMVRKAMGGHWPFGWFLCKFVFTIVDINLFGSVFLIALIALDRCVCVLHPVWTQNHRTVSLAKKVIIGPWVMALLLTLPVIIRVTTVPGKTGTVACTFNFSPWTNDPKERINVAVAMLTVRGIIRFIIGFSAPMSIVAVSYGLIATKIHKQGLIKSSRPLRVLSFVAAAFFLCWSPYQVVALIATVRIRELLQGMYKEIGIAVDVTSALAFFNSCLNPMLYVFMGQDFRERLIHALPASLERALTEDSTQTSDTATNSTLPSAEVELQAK", "assay": "compound-induced calcium activity on FLIPR Tetra in HEK-Gqi5 cells stable expressing FPR1", "type": "cell-based", "design": "FPR1 (rel. eff.): scale not given here", "outline": "as §1"}, "[1]": {"settings": "calcium, FLIPR Tetra, tested 0.61 to 10,000 nM, read-out: FPRL1 EC50"}, "[2]": {"settings": "class symbol NA, read-out: FPR1 EC50 (NA = Not Active)"}},
  "note": "Like-named read-outs stand apart in the source and are kept apart here.",
  "data": [
    {"molecule": "O=C(O)[C@@H]1[C@H](C(=O)NNc2ccc(Br)cc2)[C@@H]2CC[C@H]1C21CC1", "note": "(racemic) [Compound 87, (+/−)-(1S,2R,3S,4R)-2-(2-(4-Bromophenyl)hydrazinecarbonyl)spiro[bicyclo[2.2.1]heptane-7,1′-cyclopropane]-3-carboxylic Acid]", "values": [
      {"measurement": "EC50", "setting": "FPRL1; [1]", "result": 456, "unit": "nM"},
      {"measurement": "FPRL1 (rel. eff.)", "setting": "FPRL1; calcium, FLIPR Tetra", "result": 0.89},
      {"measurement": "EC50", "setting": "FPR1; [2]", "result": "> 10000", "unit": "nM"}
    ]},
    {"molecule": "CN(C(=O)[C@H]1[C@@H](C(=O)O)[C@H]2CC[C@@H]1C21CC1)c1ccc(Br)cc1", "note": "(racemic) [Compound 88, (+/−)-(1S,2R,3S,4R)-2-((4-Bromophenyl)(methyl)carbamoyl)spiro[bicyclo[2.2.1]heptane-7,1′-cyclopropane]-3-carboxylate]", "values": [
      {"measurement": "EC50", "setting": "FPRL1; [1]", "result": 410, "unit": "nM"},
      {"measurement": "FPRL1 (rel. eff.)", "setting": "FPRL1; calcium, FLIPR Tetra", "result": 0.94},
      {"measurement": "EC50", "setting": "FPR1; [2]", "result": "> 10000", "unit": "nM"}
    ]},
    {"molecule": "N#C[C@@H]1[C@H](C(=O)Nc2ccc(Br)cc2)[C@@H]2CC[C@H]1C21CC1", "note": "(racemic) [Compound 89, (+/−)-(1S,2R,3S,4R)—N-(4-Bromophenyl)-3-cyanospiro[bicyclo[2.2.1]heptane-7,1′-cyclopropane]-2-carboxamide]", "values": [
      {"measurement": "EC50", "setting": "FPRL1; [1]", "result": 1090, "unit": "nM"},
      {"measurement": "FPRL1 (rel. eff.)", "setting": "FPRL1; calcium, FLIPR Tetra", "result": 0.82},
      {"measurement": "EC50", "setting": "FPR1; [2]", "result": "> 10000", "unit": "nM"}
    ]},
    {"molecule": "O=C1C2C(C(O)N1c1ccc(Br)cc1)C1CCC2C12CC2", "note": "(racemic) [Compound 91, (+/−)-(3aR,4S,7R,7aS)-2-(4-Bromophenyl)-1-hydroxyhexahydro-1H-spiro[4,7-methanoisoindole-8,1′-cyclopropane]-3(2H)-one]", "values": [
      {"measurement": "EC50", "setting": "FPRL1; class symbol NA, read-out: FPRL1 EC50 (NA = Not Active)", "result": "> 10000", "unit": "nM"},
      {"measurement": "EC50", "setting": "FPR1; [2]", "result": "> 10000", "unit": "nM"}
    ]},
    {"molecule": "O=C(Nc1ccc(Br)cc1)[C@H]1[C@@H](C=NO)[C@H]2CC[C@@H]1C21CC1", "note": "(racemic) [Compound 92, (+/−)-(1S,2R,3S,4R)—N-(4-Bromophenyl)-3-((hydroxyimino)methyl)spiro[bicyclo[2.2.1]heptane-7,1′-cyclopropane]-2-carboxamide]", "values": [
      {"measurement": "EC50", "setting": "FPRL1; [1]", "result": 4380, "unit": "nM"},
      {"measurement": "FPRL1 (rel. eff.)", "setting": "FPRL1; calcium, FLIPR Tetra", "result": 0.5},
      {"measurement": "EC50", "setting": "FPR1; [2]", "result": "> 10000", "unit": "nM"}
    ]},
    {"molecule": "N=C[C@@H]1[C@H](C(=O)Nc2ccccc2)[C@@H]2CC[C@H]1C21CC1", "note": "(racemic) [Compound 93, (+/−)-(1S,2R,3S,4R)-3-(Iminomethyl)-N-phenylspiro[bicyclo[2.2.1]heptane-7,1′-cyclopropane]-2-carboxamide]", "values": [
      {"measurement": "EC50", "setting": "FPRL1; [1]", "result": 5810, "unit": "nM"},
      {"measurement": "FPRL1 (rel. eff.)", "setting": "FPRL1; calcium, FLIPR Tetra", "result": 0.58},
      {"measurement": "EC50", "setting": "FPR1; [2]", "result": "> 10000", "unit": "nM"}
    ]},
    {"molecule": "O=C(Nc1ccccc1)[C@H]1[C@@H](C=NO)[C@H]2CC[C@@H]1C21CC1", "note": "(racemic) [Compound 94, (+/−)-(1S,2R,3S,4R)-3-((Hydroxyimino)methyl)-N-phenylspiro[bicyclo[2.2.1]heptane-7,1′-cyclopropane]-2-carboxamide]", "values": [
      {"measurement": "EC50", "setting": "FPRL1; [1]", "result": 2830, "unit": "nM"},
      {"measurement": "FPRL1 (rel. eff.)", "setting": "FPRL1; calcium, FLIPR Tetra", "result": 0.49},
      {"measurement": "EC50", "setting": "FPR1; [2]", "result": "> 10000", "unit": "nM"}
    ]},
    {"molecule": "O=C(O)C1C(C(=O)Nc2ccc(Br)cc2)C2CCC1C21CC1", "note": "(single isomer, unassigned) [Compound 10B]", "values": [
      {"measurement": "EC50", "setting": "FPRL1; [1]", "result": "< 1", "unit": "nM"},
      {"measurement": "FPRL1 (rel. eff.)", "setting": "FPRL1; calcium, FLIPR Tetra", "result": 0.98},
      {"measurement": "EC50", "setting": "FPR1; calcium, FLIPR Tetra, tested 0.61 to 10,000 nM, read-out: FPR1 EC50", "result": 2170, "unit": "nM"},
      {"measurement": "FPR1 (rel. eff.)", "setting": "FPR1; relative efficacy, calcium, FLIPR Tetra", "result": 0.76}
    ]},
    {"molecule": "CS(=O)(=O)c1ccc(NC(=O)[C@H]2[C@@H](C(=O)O)[C@H]3CC[C@@H]2C32CC2)cc1", "note": "[Compound 45, (1R,2S,3R,4S)-3-((4-(Methylsulfonyl)phenyl)carbamoyl)spiro[bicyclo[2.2.1]heptane-7,1′-cyclopropane]-2-carboxylic Acid]", "values": [
      {"measurement": "EC50", "setting": "FPRL1; [1]", "result": 598, "unit": "nM"},
      {"measurement": "FPRL1 (rel. eff.)", "setting": "FPRL1; calcium, FLIPR Tetra", "result": 0.86},
      {"measurement": "EC50", "setting": "FPR1; [2]", "result": "> 10000", "unit": "nM"}
    ]},
    {"molecule": "O=C(O)C1=C(C(=O)Nc2ccc(Br)cc2)C2CCC1CC2", "note": "[Compound 60, (1s,4s)-3-((4-Bromophenyl)carbamoyl)bicyclo[2.2.2]oct-2-ene-2-carboxylic Acid]", "values": [
      {"measurement": "EC50", "setting": "FPRL1; [1]", "result": 143, "unit": "nM"},
      {"measurement": "FPRL1 (rel. eff.)", "setting": "FPRL1; calcium, FLIPR Tetra", "result": 1.0},
      {"measurement": "EC50", "setting": "FPR1; [2]", "result": "> 10000", "unit": "nM"}
    ]},
    {"molecule": "(+/−)-(1S,2R,3S,4R)—N^2-(4-Bromophenyl)-N^3-methoxyspiro[bicyclo[2.2.1]heptane-7,1′-cyclopropane]-2,3-dicarboxamide [Compound 80]", "values": [
      {"measurement": "EC50", "setting": "FPRL1; [1]", "result": 55.9, "unit": "nM"},
      {"measurement": "FPRL1 (rel. eff.)", "setting": "FPRL1; calcium, FLIPR Tetra", "result": 0.97},
      {"measurement": "EC50", "setting": "FPR1; [2]", "result": "> 10000", "unit": "nM"}
    ]}
  ]
}
